The term clearance denotes a measure of how efficiently the substance is removed, as volume per time. Read a high clearance as a high capacity for elimination. Usually IC50 stands for the concentration needed to halve the response being measured.

The structures appear in SMILES notation. Structures can show the parent of a compound that is named as a salt.

The nature of data set [1]: Pharmacokinetics in male Sprague Dawley rats, intravenous injection. The data set is classed as in vivo. The note with it: rat, plasma, 1 mg/kg; male SD rats, n=3, intravenous injection, 0.2 mg/mL, 5 mL/kg. The method, then: Test compounds was dissolved in 5% DMSO+95% (10% HP-β-CD in Saline) to a concentration of 0.2 mg/mL and given to SD rats (Male, n=3) by intravenous injection (5 mL/kg). Blood samples were collected at 0.083 h, 0.25, 0.5, 1, 2, 4, 8, and 24 h after injection (anticoagulant:K2-EDTA). These tubes were kept in an ice bath prior to centrifugation at approximately 6800 g for 6 minutes at approximately 5° C. Samples were analyzed for the presence of the test compound with an TQ5500 mass spectrometer (AB Sciex) coupled to an ACQUITY UPLC BEH C18 (1.7 μm, 2.1 mm×50 mm) HPLC column. Gradient elution was applied consisting of ultrapure water containing 0.1% formic acid and acetonitrile containing 0.1% formic acid. Standard set of parameters including Area Under the Curve (AUC (0-t) and […]), elimination half-live (T1/2), maximum plasma concentration (Cmax), time to reach maximum plasma concentration (Tmax) will be calculated using non-compartmental analysis modules in Phoenix WinNonlin 7.0 (Pharsight, USA).

The subject of the next data set is HCT116 MTAP−/−. The experiment in a line: Inhibition of cellular proliferation (Cell Titer Glo), HCT116 MTAP-/-. The note with it: Homo sapiens, HCT-116, 120 h, 5 days treatment. The data set is classed as cell-based. The method, then:
(§1) Test compound impact on cancer cell growth was assessed by treating cancer cells with compound for 5 days and then measuring proliferation using an ATP-based cell proliferation readout (Cell Titer Glo, Promega Corporation).
(§2) In a typical assay an isogenic pair of HCT116 human colon carcinoma cell lines which vary only in MTAP deletion status (HCT116 MTAP+/+ and HCT116 MTAP−/−) were plated in 96-well dishes at appropriate cell density. Following 24 hours, cells were then treated with the candidate MAT2A inhibitor. Prior to addition to cells, the compound was first serially diluted in DMSO, typically as a 3-fold serial dilution with 9 dose points.
(§3) Compound was then transferred to a working stock plate in cell culture media by adding 3 μl of compound in DMSO to 297 μl of cell culture media. […]
(§4) To measure inhibition of cellular proliferation, cells were allowed to equilibrate to room temperature for 30 minutes, and were then treated with 40 μl of Cell Titer Glo reagent. […] Luminescent signal of the Cell Titer Glo reagent was then measured using a plate-based luminometer and normalized via an ATP standard curve. This luminescence measure was converted to a proliferation index by subtracting from each datapoint the ATP luminescence measured from a control cell plate that was measured at the time of compound treatment. […]
(In general: Cellular ATP, detected with luciferase, serves as a proxy for viable cell number.)

The test system of another data set is HCT116 MTAP+/+. The experiment in a line: Inhibition of cellular proliferation (Cell Titer Glo), HCT116 WT (MTAP+/+). The note with it: Homo sapiens, HCT-116, 120 h, 5 days treatment. The data set is classed as cell-based. The method, then:
as §1, §2, §3, §4

Data set [2] is described as follows: Hygroscopicity evaluation (DVS). The class given is physicochemical. The note with it: for hygroscopicity (in words): DVS at 25 °C, water uptake up to 80% RH; for water uptake up to 80% RH: DVS isotherm at 25 °C between 0% RH and 95% RH. The method, then: Compound 1 Freebase Type A/B/C, Compound 1 maleate salt Type A, and Compound 1 citrate salt Type A were evaluated for hygroscopicity. DVS isotherm plots were collected at 25 ? between 0% RH and 95% RH.

Data set [3] is described as follows: Stability of 1 mg capsules (total impurity). The class given is physicochemical. The note with it: 1 mg capsules in aluminum blister foils. The method, then: Compound 1 freebase Type A or Compound 1 maleate salt Type A was sieved with 40 mesh sieves, followed by mixing with the same amount of diluent, disintegrant and lubricant to prepare 1000 capsules. The strength of these capsules is 1 mg, and the capsules are packaged in aluminum blister foils. The stability of 1 mg capsules was investigated at 40° C./75% RH and 60° C., and the results were in Table 26.

A short description of data set [4]: Kinetic solubility evaluation. The data set is classed as physicochemical. To be noted: H2O, SGF and FaSSIF, 37 °C, solid loading ~10 mg/mL (calculated as freebase). Here is the method: Kinetic solubility of Compound 1 Freebase Type A, Compound 1 maleate salt Type A, and Compound 1 citrate salt Type A were measured in water, SGF (Simulated Gastric Fluid), FaSSIF (Fasted State Simulated Intestinal Fluid) and FeSSIF (Fed State Simulated Intestinal Fluid) at 37 ? with solid loading of ~10 mg/mL (calculated as freebase). The results are presented in FIG. 59A, FIG. 59B, FIG. 59C, and FIG. 59D.

In data set [1], `C#CCNc1nc(=O)n(-c2cccnc2C)c2cc(C(F)(F)F)cc(OC)c12` [Compound 1 Freebase Type A, 5-methoxy-1-(2-methylpyridin-3-yl)-4-(prop-2-yn-1-ylamino)-7-(trifluoromethyl) quinazolin-2 (1H)-one] had a clearance of 0.17 mL/min/kg. Moreover, the IC50 amounted to 198 nM with HCT116 MTAP−/− and 21 µM in the data set with HCT116 MTAP+/+. Further, the “hygroscopicity (in words)” value in data set [2] is given as “slightly hygroscopic”. Moreover, the “water uptake up to 80% RH” value in data set [2] is given as ~ 0.3%. The Total impurity in data set [3] (40° C./75% RH, 0 d, listed as Free form Type A) came to 0.21%; in data set [3] (40° C./75% RH, 10 d, listed as Free form Type A), 0.95%; in data set [3] (60° C., 0 d, listed as Free form Type A), 0.21%; in data set [3] (60° C., 5 d, listed as Free form Type A), 4.4%; in data set [3] (60° C., 10 d), 8.04%.

For `C#CCNc1nc(=O)n(-c2cccnc2C)c2cc(C(F)(F)F)cc(OC)c12` [Compound 1 Freebase Type B, 5-methoxy-1-(2-methylpyridin-3-yl)-4-(prop-2-yn-1-ylamino)-7-(trifluoromethyl) quinazolin-2 (1H)-one], the “water uptake up to 80% RH” value in data set [2] was ~ 11.6%.

On to `C#CCNc1nc(=O)n(-c2cccnc2C)c2cc(C(F)(F)F)cc(OC)c12` [Compound 1 Freebase Type C, 5-methoxy-1-(2-methylpyridin-3-yl)-4-(prop-2-yn-1-ylamino)-7-(trifluoromethyl) quinazolin-2 (1H)-one], for which the “water uptake up to 80% RH” value in data set [2] is ~ 6.7%.

In the case of `C#CCNc1nc(=O)n(-c2cccnc2C)c2cc(C(F)(F)F)cc(OC)c12` [Compound 1 citrate salt Type A, 5-methoxy-1-(2-methylpyridin-3-yl)-4-(prop-2-yn-1-ylamino)-7-(trifluoromethyl) quinazolin-2 (1H)-one], in data set [2], the “hygroscopicity (in words)” value is on record as “slightly hygroscopic” and the “water uptake up to 80% RH” value is listed as 1.6%. Also, the “kinetic solubility compared with Compound 1 Freebase Type A” value in data set [4] was “improved solubility”.

On to `C#CCNc1nc(=O)n(-c2cccnc2C)c2cc(C(F)(F)F)cc(OC)c12` [Compound 1 maleate salt Type A, 5-methoxy-1-(2-methylpyridin-3-yl)-4-(prop-2-yn-1-ylamino)-7-(trifluoromethyl) quinazolin-2 (1H)-one], for which the “hygroscopicity (in words)” value in data set [2] is on record as “non-hygroscopic”. Moreover, the “water uptake up to 80% RH” value in data set [2] is ~ 0.07%. For the same compound, the “kinetic solubility compared with Compound 1 Freebase Type A” value in data set [4] was “improved solubility”. In addition, the “kinetic solubility compared with Compound 1 citrate salt Type A” value in data set [4] was “higher solubility”. Also, the Total impurity in data set [3] (40° C./75% RH, 0 d, listed as Maleate Type A) came to 0.10%; in data set [3] (40° C./75% RH, 10 d, listed as Maleate Type A) it was 2.0%; in data set [3] (60° C., 0 d, listed as Maleate Type A), 0.10%; in data set [3] (60° C., 5 d, listed as Maleate Type A), 12.6%.

Values taken from patent publication US20260285830A1, “CRYSTALLINE METHIONINE ADENOSYLTRANSFERASE 2a (MAT2A) INHIBITOR AND USES THEREOF” (Insilico Medicine IP Limited, priority 2023, published 2026).
